The nature of data set [1]: Modulation of gamma secretase in CHO-2B7 cells assessed as reduction in amyloid beta 40 level after 5 hrs by MSD ELISA. The format is cell-based. To be noted: Cricetulus griseus, CHO-2B7, 5 h. For orientation: ELISA stands for enzyme-linked immunosorbent assay.
The subject of a further data set is Liver microsomes. Kind of data set: Metabolic stability in human liver microsomes at 1 uM after 60 mins by LC/MS/MS analysis. To be noted: 1 h. In general terms: Liver microsomes are vesicles of endoplasmic reticulum, rich in cytochrome P450 enzymes.
A short description of data set [2]: Modulation of gamma secretase in CHO-2B7 cells assessed as reduction in amyloid beta 42 level after 5 hrs by MSD ELISA. In kind it is cell-based. The following applies: Cricetulus griseus, CHO-2B7, 5 h.

In general, pIC50 refers to −log10 of the IC50, conventionally taken in molar units.

pIC50: −log10 of the molar value.

As for `CCO[C@@H]([C@H]1C[C@@H](C)[C@H]2[C@H](O1)[C@H](O)[C@@]1(C)[C@@H]3CC[C@H]4C(C)(C)[C@@H](OC(=O)NCCN(C)C)CC[C@@]45C[C@@]35CC[C@]21C)C(C)(C)O`, the pIC50 is 4.77 in data set [1] and 6.62 in data set [2]. Besides, the Stability result with Liver microsomes is on record as “Stable”.
The like results for `CCO[C@@H]([C@H]1C[C@@H](C)[C@H]2[C@H](O1)[C@H](O)[C@@]1(C)[C@@H]3CC[C@H]4C(C)(C)[C@@H](O[C@H]5CN(C6CCOCC6)CCO5)CC[C@@]45C[C@@]35CC[C@]21C)C(C)(C)O` were, in that order, 5.30, 6.46 and “Stable”.
Consider `CCO[C@@H]([C@H]1C[C@@H](C)[C@H]2[C@H](O1)[C@H](O)[C@@]1(C)[C@@H]3CC[C@H]4C(C)(C)[C@@H](O[C@H]5CN(CCC(=O)O)CCO5)CC[C@@]45C[C@@]35CC[C@]21C)C(C)(C)O`, for which the results for the pIC50 in data set [1] and in data set [2] were 5.02 and 6.51, respectively. Also, the Stability entry in the data set on Liver microsomes is “Stable”.
The like results for `CC(C)[C@@H](OC(=O)N1CCC1)[C@H]1C[C@@H](C)[C@H]2[C@H](O1)[C@H](O)[C@@]1(C)[C@@H]3CC[C@H]4C(C)(C)[C@@H](O[C@H]5CN(C6COC6)CCO5)CC[C@@]45C[C@@]35CC[C@]21C` were, in that order, 4.96, 6.25 and “Stable”.
Consider `CC(C)[C@@H](OC(=O)N1CCC1)[C@H]1C[C@@H](C)[C@H]2[C@H](O1)[C@H](O)[C@@]1(C)[C@@H]3CC[C@H]4C(C)(C)[C@@H](O[C@H]5CN(C(=O)CCC(=O)O)CCO5)CC[C@@]45C[C@@]35CC[C@]21C`, for which the pIC50 in data set [1] was 5.14; in data set [2] it was 6.55. Besides, in the data set with Liver microsomes, the Stability result is listed as “Stable”.
The like results for `CCO[C@@H]([C@H]1C[C@@H](C)[C@H]2[C@H](O1)[C@H](O)[C@@]1(C)[C@@H]3CC[C@H]4C(C)(C)[C@@H](O[C@H]5CN(CC(=O)N6CCOCC6)CCO5)CC[C@@]45C[C@@]35CC[C@]21C)C(C)(C)O` were, in that order, 4.85, 6.64 and “Stable”.
As for `CC(C)[C@@H](OC(=O)N1CCC1)[C@H]1C[C@@H](C)[C@H]2[C@H](O1)[C@H](O)[C@@]1(C)[C@@H]3CC[C@H]4C(C)(C)[C@@H](O[C@H]5CN(C(=O)CN6CCC6)CCO5)CC[C@@]45C[C@@]35CC[C@]21C`, the pIC50 in data set [1] was 5.11; in data set [2], 6.96. Besides, in the data set with Liver microsomes, the Stability result is reported as “Stable”.
On the same counts, the results for `COCCN1CCO[C@@H](O[C@H]2CC[C@]34C[C@]35CC[C@]3(C)[C@@H]6[C@H](O[C@@H]([C@H](OC(=O)N7CCC7)C(C)C)C[C@H]6C)[C@H](O)[C@@]3(C)[C@@H]5CC[C@H]4C2(C)C)C1` are 5.28, 6.28 and “Stable”.
On the same counts, the results for `CCO[C@@H]([C@H]1C[C@@H](C)[C@H]2[C@H](O1)[C@H](O)[C@@]1(C)[C@@H]3CC[C@H]4C(C)(C)[C@@H](OC(=O)N5CC[C@H](C(=O)O)C5)CC[C@@]45C[C@@]35CC[C@]21C)C(C)(C)O` are 4.77, 6.40 and “Stable”.
On the same counts, the results for `CC(C)[C@@H](OC(=O)N1CCC1)[C@H]1C[C@@H](C)[C@H]2[C@H](O1)[C@H](O)[C@@]1(C)[C@@H]3CC[C@H]4C(C)(C)[C@@H](OC(=O)NCCC(=O)O)CC[C@@]45C[C@@]35CC[C@]21C` are 4.89, 6.21 and “Stable”.
As to `CC(C)[C@@H](OC(=O)N1CCC1)[C@H]1C[C@@H](C)[C@H]2[C@H](O1)[C@H](O)[C@@]1(C)[C@@H]3CC[C@H]4C(C)(C)[C@@H](OC(=O)N(C)C)CC[C@@]45C[C@@]35CC[C@]21C`, the pIC50 in data set [1] is 5.85; in data set [2], 5.89. Further, the Stability result with Liver microsomes is given as “Stable”.
The like results for `CCO[C@@H]([C@H]1C[C@@H](C)[C@H]2[C@H](O1)[C@H](O)[C@@]1(C)[C@@H]3CC[C@H]4C(C)(C)[C@@H](OC(=O)NC5CN(C)C5)CC[C@@]45C[C@@]35CC[C@]21C)C(C)(C)O` were, in that order, 6.01, 7.19 and “Stable”.
The like results for `CCO[C@@H]([C@H]1C[C@@H](C)[C@H]2[C@H](O1)[C@H](O)[C@@]1(C)[C@@H]3CC[C@H]4C(C)(C)[C@@H](O[C@H]5CN(CCN6CCOCC6)CCO5)CC[C@@]45C[C@@]35CC[C@]21C)C(C)(C)O` were, in that order, 5.89, 6.37 and “Stable”.
The like results for `CC(C)[C@@H](OC(=O)N1CCC1)[C@H]1C[C@@H](C)[C@H]2[C@H](O1)[C@H](O)[C@@]1(C)[C@@H]3CC[C@H]4C(C)(C)[C@@H](O[C@H]5CN(C)CCO5)CC[C@@]45C[C@@]35CC[C@]21C` were, in that order, 5.08, 6.11 and “Stable”.
Regarding `CC(C)[C@@H](OC(=O)N1CCC1)[C@H]1C[C@@H](C)[C@H]2[C@H](O1)[C@H](O)[C@@]1(C)[C@@H]3CC[C@H]4C(C)(C)[C@@H](OC(=O)N5CC(O)C5)CC[C@@]45C[C@@]35CC[C@]21C`, the pIC50 in data set [1] was 5.10; in data set [2], 6.46. For the same molecule, in the data set on Liver microsomes, the Stability entry was “Stable”.
On the same counts, the results for `CC(C)[C@@H](OC(=O)N1CCC1)[C@H]1C[C@@H](C)[C@H]2[C@H](O1)[C@H](O)[C@@]1(C)[C@@H]3CC[C@H]4C(C)(C)[C@@H](OC(=O)NC5CN(C)C5)CC[C@@]45C[C@@]35CC[C@]21C` are 5.19, 6.77 and “Stable”.
For `CCO[C@@H]([C@H]1C[C@@H](C)[C@H]2[C@H](O1)[C@H](O)[C@@]1(C)[C@@H]3CC[C@H]4C(C)(C)[C@@H](O[C@H]5CN(CCF)CCO5)CC[C@@]45C[C@@]35CC[C@]21C)C(C)(C)O`, the pIC50 was 5.33 in data set [1] and 6.62 in data set [2]. Further, the Stability entry with Liver microsomes is “Stable”.
The like results for `CCO[C@@H]([C@H]1C[C@@H](C)[C@H]2[C@H](O1)[C@H](O)[C@@]1(C)[C@@H]3CC[C@H]4C(C)(C)[C@@H](O[C@H]5CN(C6CNC6)CCO5)CC[C@@]45C[C@@]35CC[C@]21C)C(C)(C)O` were, in that order, 5.62, 7.00 and “Stable”.
Consider `CCO[C@@H]([C@H]1C[C@@H](C)[C@H]2[C@H](O1)[C@H](O)[C@@]1(C)[C@@H]3CC[C@H]4C(C)(C)[C@@H](O[C@H]5CN(CCCC(=O)O)CCO5)CC[C@@]45C[C@@]35CC[C@]21C)C(C)(C)O`, for which the pIC50 in data set [1] was 5.19; in data set [2], 6.20. The Stability entry in the data set with Liver microsomes is “Stable”.
On the same counts, the results for `CC(C)[C@@H](OC(=O)N1CCC1)[C@H]1C[C@@H](C)[C@H]2[C@H](O1)[C@H](O)[C@@]1(C)[C@@H]3CC[C@H]4C(C)(C)[C@@H](OC(=O)N[C@@H]5CCCNC5=O)CC[C@@]45C[C@@]35CC[C@]21C` are 5.18, 6.42 and “Stable”.
On the same counts, the results for `CCO[C@@H]([C@H]1C[C@@H](C)[C@H]2[C@H](O1)[C@H](O)[C@@]1(C)[C@@H]3CC[C@H]4C(C)(C)[C@@H](OC(=O)N5CC[C@@H](C(=O)O)C5)CC[C@@]45C[C@@]35CC[C@]21C)C(C)(C)O` are 4.85, 6.27 and “Stable”.
Take `CC(C)[C@@H](OC(=O)N1CCC1)[C@H]1C[C@@H](C)[C@H]2[C@H](O1)[C@H](O)[C@@]1(C)[C@@H]3CC[C@H]4C(C)(C)[C@@H](OC(=O)N[C@@H]5CCNC5=O)CC[C@@]45C[C@@]35CC[C@]21C`: the pIC50 in data set [1] is 5.23; in data set [2], 6.74. Moreover, in the data set on Liver microsomes, the Stability entry is given as “Stable”.
With `CCO[C@@H]([C@H]1C[C@@H](C)[C@H]2[C@H](O1)[C@H](O)[C@@]1(C)[C@@H]3CC[C@H]4C(C)(C)[C@@H](O[C@H]5CN(C6(C)COC6)CCO5)CC[C@@]45C[C@@]35CC[C@]21C)C(C)(C)O`, the results for the pIC50 in data set [1] and in data set [2] were 5.24 and 6.40, respectively. For the same molecule, the Stability result with Liver microsomes is recorded as “Stable”.
Take `CCO[C@@H]([C@H]1C[C@@H](C)[C@H]2[C@H](O1)[C@H](O)[C@@]1(C)[C@@H]3CC[C@H]4C(C)(C)[C@@H](O[C@H]5CN(C(=O)CC6CN(C)C6)CCO5)CC[C@@]45C[C@@]35CC[C@]21C)C(C)(C)O`: the pIC50 in data set [1] was 5.51; in data set [2], 6.82. In addition, the Stability result in the data set with Liver microsomes is “Stable”.
On the same counts, the results for `CC(C)C(=O)N1CCO[C@@H](O[C@H]2CC[C@]34C[C@]35CC[C@]3(C)[C@@H]6[C@H](O[C@@H]([C@H](OC(=O)N7CCC7)C(C)C)C[C@H]6C)[C@H](O)[C@@]3(C)[C@@H]5CC[C@H]4C2(C)C)C1` are 4.96, 6.40 and “Stable”.
In the case of `CCO[C@@H]([C@H]1C[C@@H](C)[C@H]2[C@H](O1)[C@H](O)[C@@]1(C)[C@@H]3CC[C@H]4C(C)(C)[C@@H](O[C@H]5CN(C(=O)C(C)C)CCO5)CC[C@@]45C[C@@]35CC[C@]21C)C(C)(C)O`, the pIC50 in data set [1] is 5.46; in data set [2], 6.77. In addition, in the data set with Liver microsomes, the Stability entry is given as “Stable”.
On the same counts, the results for `CC(C)[C@@H](OC(=O)N1CCC1)[C@H]1C[C@@H](C)[C@H]2[C@H](O1)[C@H](O)[C@@]1(C)[C@@H]3CC[C@H]4C(C)(C)[C@@H](OC(=O)N[C@H]5CCCNC5=O)CC[C@@]45C[C@@]35CC[C@]21C` are 5.19, 6.55 and “Stable”.

The values above are taken from ChEMBL document CHEMBL2203235, “Optimization of a natural product-based class of γ-secretase modulators” (J Med Chem, 2012).
